Measured values: patent US9796672B2, “Isoindoline compositions and methods for treating neurodegenerative disease” (Cognition Therapeutics, Inc., priority 2014, dated 2017)
“Also recorded” adds a separate entry of the source.

Key:
[1] = Mouse liver microsome (MLM) stability; format: in vitro ADME
Method: A first pharmacokinetic study was performed in microsomes of mice mouse liver microsomes, MLM) by a commercial contract research organization. The studies were performed according to Obach, R. S et al. (1997) J. Pharmacol. Exp. Ther., 283: 46-58, which is incorporated herein by reference.

neuronal cultures = assay: Functional neuronal phenotype in neuronal cultures; format: cell-based; set-up: key: Antagonist: antagonists (block Abeta signaling); Agonist: agonists (block Abeta signaling with U-shaped dose-response curve and toxicity at high doses); Inactive: inactive (no effect in neuronal cultures)
Method: Neuronal cultures are treated with various concentrations of sigma compounds for 24 hours and nuclear intensity compared to vehicle is measured.

[2] = tested on: Abeta oligomer-induced membrane trafficking deficits in primary hippocampal neurons; assay: Membrane trafficking/exocytosis (MTT) assay; conditions: read-out: Membrane Trafficking EC50; compound dosed prior to Abeta oligomer addition
Method: Primary hippocampal neurons from E18 Sprague-Dawley rat embryos were plated at optimized concentrations in 384 well plates in NB media (Invitrogen). Neurons were maintained in cultures for 3 weeks, with twice weekly feeding of NB media with N2 supplement (Invitrogen).
MTT reagent (3-(4,5-dimethylthizaol-2yl)-2,5diphenyl tetrazolium bromide) (Roche Molecular Biochemicals) was reconstituted in phosphate buffered saline to 5 mg/mL. 10 μL of MTT labeling reagent is added to each well and incubated at 37° C. for 1 h, then imaged. Exocytosis was assessed by automated microscopy and image processing to quantify the amount of endocytosed and exocytosed formazan.
Each assay plate was formatted so that compounds are tested with and without Abeta oligomer on each plate. […] Reduced formazan was first visible in intracellular vesicles. […] The dye precipitated in the aqueous environment of the culture and formed needle-shaped crystals on the surface of the neuron.

Sigma-2 receptor = Sigma-2 receptor competitive radioligand binding assay; set-up: species or system rat; conditions: read-out: Sigma-2 Receptor Affinity, Ki
Method: Radioligand binding assays for Sigma-1 receptors and Sigma-2 receptors were carried out by a commercial contract research organization. For Sigma-1 binding, various concentrations of test compounds from 100 μM to 1 nM were used to displace 8 nM [^3H](+)pentazocine from endogenous receptors on Jurkat cell membranes (Ganapathy M E et al. 1991, J Pharmacol. Exp. Ther. 289:251-260). 10 μM Haloperidol was used to define non-specific binding. For Sigma-2 receptors various concentrations of test compounds from 100 μM to 1 nM were used to displace 5 nM [^3H] […] (Bowen W D, et al. 1993, Mol. Neuropharmcol 3:117-126). 10 μM Haloperidol was used to define non-specific binding. Reactions were terminated by rapid filtration through Whatman GF/C filters using a Brandel 12R cell harvester followed by two washes with ice-cold buffer. Radioactivity on the dried filter discs was measured using a liquid scintillation analyzer (Tri-Carb 2900TR; PerkinElmer Life and Analytical Sciences). The displacement curves were plotted and the Ki values of the test ligands for the receptor subtypes were determined using GraphPad Prism (GraphPad Software Inc., San Diego, Calif.). The percentage specific binding was determined by dividing the difference between total bound (disintegrations per minute) and nonspecific bound (disintegrations per minute) by the total bound (disintegrations per minute).
The affinity of candidate sigma-2 ligand compounds at sigma-1 and sigma-2 receptors was also determined by displacement of different known labeled sigma-2 or sigma-1 ligands. Filtration assays were conducted according the previously published procedure (Xu, et al., 2005). Test compounds were dissolved in N,N-Dimethylformamide (DMF), dimethyl sulfoxide (DMSO) or ethanol and then diluted in 50 mM Tris-HCl pH 7.4 buffer containing 150 mM NaCl and 100 mM EDTA. Membrane homogenates were made from guinea pig brain for sigma-1 binding assay and rat liver for sigma-2 binding assay. Membrane homogenates were diluted with 50 mM Tris-HCl buffer, pH 8.0 and incubated at 25° C. in a total volume of 150 uL in 96 well plates with the radioligand and test compounds with concentrations ranging from 0.1 nM to 10 uM. After incubation was completed, the reactions were terminated by the addition of 150 uL of ice-cold wash buffer (10 mM Tris HCl, 150 mM NaCl, pH 7.4) using a 96 channel transfer pipette (Fisher Scientific, Pittsburgh, Pa.) and the samples harvested and filtered rapidly through 96 well fiber glass filter plate (Millipore, Billerica, Mass.) that had been presoaked with 100 uL of 50 mM Tris-HCl buffer. Each filter was washed four times with 200 uL of ice-cold wash buffer (10 mM Tris-HCl, 150 mM NaCl, pH 7.4). A Wallac 1450 MicroBeta liquid scintillation counter (Perkin Elmer, Boston, Mass.) was used to quantitate the bound radioactivity.
Nonspecific binding was determined from samples that contained 10 uM of cold haloperidol.
The binding affinity, Ki values was calculated using the method of Cheng and Prusoff.

potassium channel hERG = potassium channel hERG (Homo sapiens (Human), UniProt Q12809); assay: In vitro toxicity, hERG inhibition; format: biochemical
Method: In vitro toxicity for Test Compounds is tested in a number of standard assays.

Sigma-1 receptor = Sigma-1 receptor competitive radioligand binding assay; conditions: read-out: Sigma-1 Receptor Affinity, Ki
Method: Radioligand binding assays for Sigma-1 receptors and Sigma-2 receptors were carried out by a commercial contract research organization. For Sigma-1 binding, various concentrations of test compounds from 100 μM to 1 nM were used to displace 8 nM [^3H](+)pentazocine from endogenous receptors on Jurkat cell membranes (Ganapathy M E et al. 1991, J Pharmacol. Exp. Ther. 289:251-260). 10 μM Haloperidol was used to define non-specific binding. […] 10 μM Haloperidol was used to define non-specific binding. Reactions were terminated by rapid filtration through Whatman GF/C filters using a Brandel 12R cell harvester followed by two washes with ice-cold buffer. Radioactivity on the dried filter discs was measured using a liquid scintillation analyzer (Tri-Carb 2900TR; PerkinElmer Life and Analytical Sciences). The displacement curves were plotted and the Ki values of the test ligands for the receptor subtypes were determined using GraphPad Prism (GraphPad Software Inc., San Diego, Calif.). The percentage specific binding was determined by dividing the difference between total bound (disintegrations per minute) and nonspecific bound (disintegrations per minute) by the total bound (disintegrations per minute).

potassium channel hERG, sequence (Q12809 whole entry): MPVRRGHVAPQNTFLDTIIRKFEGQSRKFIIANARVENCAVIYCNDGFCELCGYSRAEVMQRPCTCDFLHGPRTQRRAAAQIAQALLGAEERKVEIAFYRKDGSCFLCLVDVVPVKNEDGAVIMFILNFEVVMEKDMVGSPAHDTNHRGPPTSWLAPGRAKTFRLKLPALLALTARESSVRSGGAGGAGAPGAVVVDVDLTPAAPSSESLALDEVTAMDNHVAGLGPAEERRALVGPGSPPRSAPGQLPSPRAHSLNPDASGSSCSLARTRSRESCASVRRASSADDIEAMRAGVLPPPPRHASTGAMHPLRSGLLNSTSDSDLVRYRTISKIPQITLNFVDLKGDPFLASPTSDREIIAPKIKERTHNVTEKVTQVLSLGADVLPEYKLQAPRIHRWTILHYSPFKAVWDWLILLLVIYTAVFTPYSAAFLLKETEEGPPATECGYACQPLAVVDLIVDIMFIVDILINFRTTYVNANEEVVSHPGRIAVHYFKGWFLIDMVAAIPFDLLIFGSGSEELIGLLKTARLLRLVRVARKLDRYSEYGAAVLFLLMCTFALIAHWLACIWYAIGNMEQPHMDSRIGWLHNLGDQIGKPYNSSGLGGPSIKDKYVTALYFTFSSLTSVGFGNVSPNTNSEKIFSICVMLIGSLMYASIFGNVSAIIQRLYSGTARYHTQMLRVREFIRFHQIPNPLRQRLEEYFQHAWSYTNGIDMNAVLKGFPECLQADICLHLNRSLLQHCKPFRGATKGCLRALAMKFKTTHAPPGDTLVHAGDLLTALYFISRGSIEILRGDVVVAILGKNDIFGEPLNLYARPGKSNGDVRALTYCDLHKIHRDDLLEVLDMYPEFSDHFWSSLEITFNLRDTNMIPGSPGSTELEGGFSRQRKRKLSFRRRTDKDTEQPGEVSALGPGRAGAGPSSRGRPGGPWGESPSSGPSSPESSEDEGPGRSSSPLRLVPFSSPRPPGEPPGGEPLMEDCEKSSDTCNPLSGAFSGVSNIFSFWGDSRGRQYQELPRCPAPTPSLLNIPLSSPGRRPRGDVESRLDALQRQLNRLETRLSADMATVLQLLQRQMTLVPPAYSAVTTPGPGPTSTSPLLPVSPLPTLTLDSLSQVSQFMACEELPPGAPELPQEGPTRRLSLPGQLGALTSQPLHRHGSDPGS

COc1cc(CCC(C)(C)N2Cc3cccc(N4CCNCC4)c3C2)ccc1O [compound 107]
Mouse liver microsomes, MLM t½ ([1]; mouse, microsomes): 25.21 min
neuronal phenotype (neuronal cultures): Inactive
EC50 [2]: 100 µM
Ki (Sigma-2 receptor): 10 µM

COc1ccc(CCC(C)(C)N2Cc3ccc(S(C)(=O)=O)cc3C2)cc1 [compound 102]
Mouse liver microsomes, MLM t½ ([1]; mouse, microsomes): 20.35 min
neuronal phenotype (neuronal cultures): Inactive
EC50 [2]: 100 µM
Ki (Sigma-2 receptor): 0.0018 µM

C[C@H](CCc1ccc(Cl)c(Cl)c1)N1Cc2ccc(F)cc2C1.Cl [compound 12]
Mouse liver microsomes, MLM t½ ([1]; mouse, microsomes): 13 min
neuronal phenotype (neuronal cultures): Antagonist
EC50 [2]: 0.4 µM

Cc1ccc2c(c1)CN([C@H](C)CCc1ccc(Cl)c(Cl)c1)C2 [compound 13]
Mouse liver microsomes, MLM t½ ([1]; mouse, microsomes): 3 min
neuronal phenotype (neuronal cultures): Antagonist
IC50 (potassium channel hERG): 0.25 µM
EC50 [2]: 0.3 µM

CC(C)(C)Oc1cc(CCC(C)(C)n2cc3ccc(S(C)(=O)=O)cc3c2)ccc1O [compound 95]
neuronal phenotype (neuronal cultures): Antagonist
EC50 [2]: 1.7 µM
Ki (Sigma-2 receptor): 0.1 µM

COc1cc(CC[C@@H](C)N2Cc3cc(Cl)c(Cl)cc3C2)ccc1O [compound 3]
Mouse liver microsomes, MLM t½ ([1]; mouse, microsomes): 21 min
Ki (Sigma-1 receptor): 0.023 µM
neuronal phenotype (neuronal cultures): Neuroactive
EC50 [2]: 3.8 µM
Ki (Sigma-2 receptor): 0.24 µM

COc1cc(CC[C@@H](C)N2Cc3cc(OC)c(OC)cc3C2)ccc1O [compound 7]
Mouse liver microsomes, MLM t½ ([1]; mouse liver microsomes): 155 min
Ki (Sigma-1 receptor): 0.042 µM
Ki (Sigma-2 receptor): 0.068 µM

CC(C)(C#Cc1ccc2[nH]ncc2c1)N1Cc2cccc(C(=O)N3CCNCC3)c2C1 [compound 114]
neuronal phenotype (neuronal cultures): Neuroactive
EC50 [2]: 0.25 µM

COc1cccc(CCC(C)(C)N2Cc3ccc(S(C)(=O)=O)cc3C2)c1 [compound 103]
Mouse liver microsomes, MLM t½ ([1]; mouse, microsomes): 15.2 min
neuronal phenotype (neuronal cultures): Inactive
EC50 [2]: 100 µM
Ki (Sigma-2 receptor): 0.0014 µM

CC(C)(CCc1ccc(Cl)c(Cl)c1)N1Cc2cccc(N3CCNCC3)c2C1 [compound 109]
Mouse liver microsomes, MLM t½ ([1]; mouse, microsomes): 253.79 min
neuronal phenotype (neuronal cultures): Agonist
EC50 [2]: 100 µM
Ki (Sigma-2 receptor): 0.031 µM

CC(C)(CCc1ccc2[nH]ncc2c1)N1Cc2cccc(C(=O)N3CCNCC3)c2C1 [compound 115]
neuronal phenotype (neuronal cultures): Inactive
EC50 [2]: 100 µM

CN1CCN(C(=O)c2cccc3c2CN(C(C)(C)CCc2ccc(O)c(OC(F)(F)F)c2)C3)CC1 [compound 93]
Mouse liver microsomes, MLM t½ ([1]; mouse, microsomes): 5 min

CC(C)(CCc1ccc(O)c(Cl)c1)N1Cc2ccc(S(C)(=O)=O)cc2C1 [compound 116]
neuronal phenotype (neuronal cultures): Inactive
EC50 [2]: 100 µM

COc1ccc(CCC(C)(C)N2Cc3cccc(C(=O)N4CCNCC4)c3C2)cc1Cl [compound 118]
neuronal phenotype (neuronal cultures): Inactive
EC50 [2]: 100 µM

C[C@H](CCc1ccc(O)c(OC(C)(C)C)c1)N1Cc2cccc(F)c2C1 [60B]
Mouse liver microsomes, MLM t½ ([1]; mouse, microsomes): 8 min
neuronal phenotype (neuronal cultures): Antagonist
EC50 [2]: 1.6 µM

CC(C)(CCc1ccc(Cl)cc1)N1Cc2cccc(C(=O)N3CCNCC3)c2C1 [compound 105]
Mouse liver microsomes, MLM t½ ([1]; mouse, microsomes): 106.23 min
neuronal phenotype (neuronal cultures): Neuroactive
EC50 [2]: 2.6 µM
Ki (Sigma-2 receptor): 0.18 µM

COc1cc(CCC(C)(C)N2Cc3ccc(S(C)(=O)=O)cc3C2)ccc1Cl [compound 113]
neuronal phenotype (neuronal cultures): Antagonist
EC50 [2]: 5.3 µM

COc1cccc(CCC(C)(C)N2Cc3cccc(C(=O)N4CCNCC4)c3C2)c1 [compound 98]
Mouse liver microsomes, MLM t½ ([1]; mouse, microsomes): 29.35 min
neuronal phenotype (neuronal cultures): Antagonist/; also recorded: Neuroactive
EC50 [2]: 0.35 µM
Ki (Sigma-2 receptor): 10 µM

COc1cc2c(cc1OC)CN(C(C)(C)CCc1ccc(F)cc1)C2 [compound 34]
Mouse liver microsomes, MLM t½ ([1]; mouse, microsomes): 46 min
Ki (Sigma-1 receptor): 0.0075 µM
neuronal phenotype (neuronal cultures): Antagonist
EC50 [2]: 13 µM

COc1cc(CCC(C)(C)N2Cc3ccc(N4CCNCC4)cc3C2)ccc1O [compound 111]
Mouse liver microsomes, MLM t½ ([1]; mouse, microsomes): 27.01 min
neuronal phenotype (neuronal cultures): Inactive
EC50 [2]: 100 µM
Ki (Sigma-2 receptor): 0.74 µM

CC(=O)N1CCN(C(=O)c2cccc3c2CN(C(C)(C)CCc2ccc(O)c(OCC(C)C)c2)C3)CC1 [compound 92]
Mouse liver microsomes, MLM t½ ([1]; mouse, microsomes): 7 min

COc1cc(CCC(C)(C)N2Cc3ccc(S(C)(=O)=O)cc3C2)ccc1O [compound 77]
Mouse liver microsomes, MLM t½ ([1]; mouse, microsomes): 142 min
neuronal phenotype (neuronal cultures): Antagonist
EC50 [2]: 0.1 µM

CC(CCc1ccc(Cl)c(Cl)c1)N1Cc2ccc3ccccc3c2C1 (stereo not drawn) [compound 19]
neuronal phenotype (neuronal cultures): Antagonist

COc1cc(CCC(C)(C)N2Cc3cccc(F)c3C2)ccc1Cl [compound 112]
neuronal phenotype (neuronal cultures): Antagonist
EC50 [2]: 0.26 µM

COc1cccc(CCC(C)(C)n2cc3ccc(S(C)(=O)=O)cc3c2)c1 [compound 104]
neuronal phenotype (neuronal cultures): Inactive
EC50 [2]: 100 µM
Ki (Sigma-2 receptor): 0.76 µM

COc1cc(CCC(C)N2Cc3ccc4ccccc4c3C2)ccc1O.Cl (stereo not drawn) [compound 17]
Mouse liver microsomes, MLM t½ ([1]; mouse, microsomes): 10 min
neuronal phenotype (neuronal cultures): Antagonist
EC50 [2]: 0.3 µM

COc1cc(CC[C@@H](C)N2Cc3ccc(C(F)(F)F)cc3C2)ccc1O [compound 2]
Mouse liver microsomes, MLM t½ ([1]; mouse, microsomes): 28 min
neuronal phenotype (neuronal cultures): Antagonist
EC50 [2]: 6.7 to 7.7 µM

COc1ccc(CCC(C)(C)N2Cc3cccc(C(=O)N4CCNCC4)c3C2)cc1OC [compound 100]
Mouse liver microsomes, MLM t½ ([1]; mouse, microsomes): 156.24 min
neuronal phenotype (neuronal cultures): Antagonist
EC50 [2]: 1.1 µM
Ki (Sigma-2 receptor): 10 µM

CC(C)(CCc1ccc(Cl)c(Cl)c1)N1Cc2ccc(N3CCNCC3)cc2C1 [compound 108]
Mouse liver microsomes, MLM t½ ([1]; mouse, microsomes): 1236.31 min
neuronal phenotype (neuronal cultures): Inactive
EC50 [2]: 100 µM
Ki (Sigma-2 receptor): 0.015 µM

COc1ccc(CCC(C)(C)N2Cc3ccc(S(C)(=O)=O)cc3C2)cc1OC [compound 101]
Mouse liver microsomes, MLM t½ ([1]; mouse, microsomes): 84.21 min
neuronal phenotype (neuronal cultures): Inactive
EC50 [2]: 100 µM
Ki (Sigma-2 receptor): 0.011 µM

COc1cc(CC[C@@H](C)N2Cc3ccc(S(C)(=O)=O)cc3C2)ccc1O [compound 68]
Mouse liver microsomes, MLM t½ ([1]; mouse, microsomes): 152 min
Ki (Sigma-1 receptor): 0.1 µM
neuronal phenotype (neuronal cultures): Inactive

COc1ccc(CCC(C)(C)N2Cc3cccc(C(=O)N4CCNCC4)c3C2)cc1 [compound 99]
Mouse liver microsomes, MLM t½ ([1]; mouse, microsomes): 93.3 min
neuronal phenotype (neuronal cultures): Antagonist/; also recorded: Neuroactive
EC50 [2]: 0.2 µM
Ki (Sigma-2 receptor): 1.2 µM

CC(C)(C#Cc1ccc2[nH]ncc2c1)N1Cc2ccc(S(C)(=O)=O)cc2C1 [compound 110]
Mouse liver microsomes, MLM t½ ([1]; mouse, microsomes): 15.66 min
neuronal phenotype (neuronal cultures): Inactive
EC50 [2]: 100 µM
Ki (Sigma-2 receptor): 10 µM

C[C@H](CCc1ccc(Cl)c(Cl)c1)N1Cc2cc(Cl)c(Cl)cc2C1 [compound 5]
Mouse liver microsomes, MLM t½ ([1]; mouse, microsomes): 53 min
Ki (Sigma-1 receptor): 0.056 µM
neuronal phenotype (neuronal cultures): Inactive
EC50 [2]: > 20 µM
Ki (Sigma-2 receptor): 0.0027 µM

C[C@H](CCc1ccc(OC(=O)N(C)C)c(OC(F)(F)F)c1)N1Cc2cccc(F)c2C1 [compound 41]
Mouse liver microsomes, MLM t½ ([1]; mouse, microsomes): 9 min
Ki (Sigma-1 receptor): 0.52 µM
neuronal phenotype (neuronal cultures): Inactive/
EC50 [2]: > 20 µM

C[C@H](CCc1ccc(Cl)c(Cl)c1)N1Cc2cccc(Cl)c2C1.Cl [compound 16]
Mouse liver microsomes, MLM t½ ([1]; mouse, microsomes): 12 min
neuronal phenotype (neuronal cultures): Inactive
EC50 [2]: > 20 µM

COc1ccc2c(c1)CN([C@H](C)CCc1ccc(Cl)c(Cl)c1)C2.Cl [compound 15]
Mouse liver microsomes, MLM t½ ([1]; mouse, microsomes): 15 min
neuronal phenotype (neuronal cultures): Inactive
EC50 [2]: 0.5 µM

COc1cc(CCC(C)(C)N2Cc3cc4c(cc3C2)OCO4)ccc1OCCO [compound 47]
Mouse liver microsomes, MLM t½ ([1]; mouse, microsomes): 91 min
Ki (Sigma-1 receptor): 1 µM
neuronal phenotype (neuronal cultures): Inactive

COc1cc(CC[C@@H](C)N2Cc3cccc(F)c3C2)ccc1O [compound 8]
Mouse liver microsomes, MLM t½ ([1]; mouse, microsomes): 16 min
Ki (Sigma-1 receptor): 0.041 µM
neuronal phenotype (neuronal cultures): Antagonist
EC50 [2]: 0.25 to 0.4 µM

CC(C)COc1cc(CCC(C)(C)N2Cc3cccc(C(=O)N4CCN(C)CC4)c3C2)ccc1O [compound 91]
Mouse liver microsomes, MLM t½ ([1]; mouse, microsomes): 6 min

CC(C)(CCc1ccc(Cl)c(Cl)c1)N1Cc2cccc(C(=O)N3CCNCC3)c2C1 [compound 106]
Mouse liver microsomes, MLM t½ ([1]; mouse, microsomes): 160.43 min
neuronal phenotype (neuronal cultures): Agonist
EC50 [2]: 3.4 µM
Ki (Sigma-2 receptor): 0.24 µM

CC(C)COc1cc(CCC(C)(C)N2Cc3cccc(C(=O)N(C)C)c3C2)ccc1O [compound 89]
Mouse liver microsomes, MLM t½ ([1]; mouse, microsomes): 17 min

CC(=O)Oc1ccc(CCC(C)(C)N2Cc3ccc(S(C)(=O)=O)cc3C2)cc1OC(C)(C)C [compound 96]
Mouse liver microsomes, MLM t½ ([1]; mouse, microsomes): <1.75 min
neuronal phenotype (neuronal cultures): Inactive
EC50 [2]: 100 µM
Ki (Sigma-2 receptor): 0.0066 µM

C[C@H](CCc1ccc(Cl)c(Cl)c1)N1Cc2ccc(C(F)(F)F)cc2C1 [compound 4]
Mouse liver microsomes, MLM t½ ([1]; mouse, microsomes): 40 min
Ki (Sigma-1 receptor): 0.033 µM
neuronal phenotype (neuronal cultures): Inactive
EC50 [2]: > 20 µM
Ki (Sigma-2 receptor): 0.0022 µM

CC(C)(CCc1ccc(O)c(Cl)c1)N1Cc2cccc(F)c2C1 [compound 117]
neuronal phenotype (neuronal cultures): Antagonist
EC50 [2]: 1.2 µM

CC(C)(CCc1ccc(F)cc1)N1Cc2cccc(F)c2C1 [compound 33]
Mouse liver microsomes, MLM t½ ([1]; mouse, microsomes): 9 min
neuronal phenotype (neuronal cultures): Antagonist
EC50 [2]: 3.3 µM

CC(C)COc1cc(CCC(C)(C)N2Cc3cccc(C(=O)N4CCOCC4)c3C2)ccc1O [compound 90]
Mouse liver microsomes, MLM t½ ([1]; mouse, microsomes): 9 min

CC(C)(CCc1ccc(O)c(OC(F)(F)F)c1)N1Cc2cccc(C(=O)N3CCOCC3)c2C1 [compound 94]
Mouse liver microsomes, MLM t½ ([1]; mouse, microsomes): 14 min
